Legend:
interleukin-6 = assay: Plasma IL-6 levels (ELISA); assay type: in vivo, human; conditions: throughout the treatment period; results not shown
Procedure: (§1) For ghrelin assays, 5 ml blood was collected in a precooled EDTA vacutainer tube containing aprotinin (33 kIU), placed immediately on ice, and centrifuged (4°C, 3000 G, 5 min). For each millilitre of plasma, 10 μl PMSF-Isopropanol, 50 μl 1N-HCL, and 50 μl aprotinin were added, and aliquots were stored at −80°C until batch analysis. Serum was collected and cooled for GH, insulin-like growth factor 1 (IGF-1), interleukin-6 (IL-6), and leptin analysis. Testosterone radioimmunoassays (Diagnostic Products Corporation; Bühlmann, Salzburg, Austria) were performed from serum sent to routine safety labs. The radioimmunoassay kits used for total and active ghrelin were from Linco Research (St Charles, MO, USA); for GH (active GH IRMA immunoradiometric assay) from Diagnostic Systems Laboratory (Webster, TX, USA); for IGF-1 (human, bovine) from Peninsula Laboratories (San Carlos, CA, USA); for IL-6 (Quantikine human ELISA) from R&D Systems (Minneapolis, MN, USA); and for leptin (human RIA) from Millipore (Billerica, MA, USA).

growth hormone (GH) = assay: Serum growth hormone (GH) response to i.v. ghrelin (IRMA); assay type: in vivo, human
Procedure: (§2) Normal saline was used as placebo.
as §1
(§3) All analyses were performed with SPSS (Version 11.5).

[1] = system: patients with advanced incurable cancer and anorexia/cachexia; conditions: in vivo
Procedure: In a randomised, double-blind, placebo-controlled, double-crossover trial, 4–5 days after baseline, patients received ghrelin on days 1 and 8 and placebo on days 4 and 11 or vice versa; end of study was day 17/18 (Figure 1).
On treatment days, patients ingested only water from midnight to breakfast. In the outpatient clinic, safety laboratory values and fasting hormone blood samples (including testosterone in male patients) were drawn at 0800 hours; venous access was maintained for pharmacokinetics. Patients received a standardised breakfast (120 g bread, 20 g butter, 60 g jam, 200 ml coffee with milk). At 1000 hours, a second i.v. line was inserted in the other arm for treatment given from 1030 to 1130 hours. Immediately after the end of the infusion, patients walked for approximately 5 min the 90 m to the restaurant where they received priority serving, starting the meal within 5 min.
Ghrelin of Good Manufacturing Practice quality was purchased from Clinalfa (Merck Biosciences, Switzerland) as vials of 88 μg, stored at −20°C, and dissolved in 250 ml normal saline by the hospital pharmacy immediately before application. The treatment was titrated up within the first 10 min (20% increase each 2 min) and maintained for the next 50 min. The lower-dose group (LD) received 10 pmol kg^−1 min^−1 (equals 0.0336 μg kg^−1 min^−1, approximately 2 μg kg^−1). […] After observing treatment tolerance in the LD patients, we administered the upper-dose group (UD) 40 pmol kg^−1 min^−1 (approximately 8 μg kg^−1). Normal saline was used as placebo.
Patients were assessed at each visit by using the NCI-CTC toxicity criteria Version 3.0, including standard blood examinations (hematology, chemistry panels), and cardiology evaluations, including echocardiography at baseline and at end of study. During the treatment phase, research personnel regularly contacted patients at home during the daytime to check for their safety. […] On study day 7 and at end of study, patients were asked about their perception of their tolerance and preference of day 1 (and 7) vs day 4 (and 11) treatments.

[2] = system: patients with advanced incurable cancer and anorexia/cachexia; conditions: human, in vivo
Text: On study day 7 and at end of study, patients were asked about their perception of their tolerance and preference of day 1 (and 7) vs day 4 (and 11) treatments.
For exploratory analyses of patients' preference of treatment, we used the exact binominal test.

[3] = system: patients with advanced incurable cancer and anorexia/cachexia; assay: Autonomic function: standard deviation of beat-to-beat intervals (SDNN); assay type: in vivo, human; conditions: UD (n=9), ghrelin, P=NS
Procedure: Autonomic dysfunction was assessed as described previously ([Strasser et al, 2006]). Standard deviation of beat-to-beat intervals (SDNN) was analysed at baseline and at end of study for 20 min in both the LD and UD; and in the UD, in addition, 30 min before infusion until after lunch on treatment days.
as §3

[4] = system: insulin-like growth factor 1; assay: Serum insulin-like growth factor 1 (IGF-1) levels; assay type: in vivo, human
Procedure: as §1, §3

[5] = stated in discussion, no reference given; cited from earlier work
Procedure: Ghrelin levels were normal before infusion at 1030 hours. Renal function was not impaired. These unexpected findings of total, but not active, ghrelin remain unexplained at present but may indeed be without any physiological significance.

[6] = system: patients with advanced incurable cancer and anorexia/cachexia; assay: Radiological tumour measurements; assay type: in vivo, human
Procedure: Patients were assessed at each visit by using the NCI-CTC toxicity criteria Version 3.0, including standard blood examinations (hematology, chemistry panels), and cardiology evaluations, including echocardiography at baseline and at end of study. […] On study day 7 and at end of study, patients were asked about their perception of their tolerance and preference of day 1 (and 7) vs day 4 (and 11) treatments. […] An independent radiologist reviewed all films made before baseline, at baseline, and at end of study to judge tumour size and dynamics.

cancer patients = conditions: seven cancer patients; 5 pmol kg^−1 min^−1 for 180 min equals 3 μg kg^−1; no adverse effects; ref Neary et al, 2004; cited from earlier work
Text: In melanoma-bearing nude mice, ghrelin plasma concentration increased with cachexia progression ([Hanada et al, 2004]). In cancer patients with cachexia (various cancers, n=21 ([Garcia et al, 2005]); breast and colorectal cancer, n=18 ([Wolf et al, 2006]); lung cancer, n=21 ([Shimizu et al, 2003])), ghrelin morning fasting levels were 1.3- to 1.5-fold higher than in those without cachexia and healthy controls. In contrast, ghrelin levels were normal in subgroups of patients in one study (39%) ([Wolf et al, 2006]) and all patients in another study (gastric and colorectal cancer, n=58) ([Huang e ...

[7] = parameters: species or system human; conditions: in vivo
Procedure: as §2, §1, §3

SMILES: CCCCCCCC(=O)OC[C@H](NC(=O)[C@H](CO)NC(=O)CN)C(=O)N[C@@H](Cc1ccccc1)C(=O)N[C@@H](CC(C)C)C(=O)N[C@@H](CO)C(=O)N1CCC[C@H]1C(=O)N[C@@H](CCC(=O)O)C(=O)N[C@@H](Cc1cnc[nH]1)C(=O)N[C@@H](CCC(N)=O)C(=O)N[C@@H](CCCNC(=N)N)C(=O)N[C@H](C(=O)N[C@@H](CCC(N)=O)C(=O)N[C@@H](CCC(N)=O)C(=O)N[C@@H](CCCNC(=N)N)C(=O)N[C@@H](CCCCN)C(=O)N[C@@H](CCC(=O)O)C(=O)N[C@@H](CO)C(=O)N[C@@H](CCCCN)C(=O)N[C@@H](CCCCN)C(=O)N1CCC[C@H]1C(=O)N1CCC[C@H]1C(=O)N[C@@H](C)C(=O)N[C@@H](CCCCN)C(=O)N[C@@H](CC(C)C)C(=O)N[C@@H](CCC(N)=O)C(=O)N1CCC[C@H]1C(=O)N[C@@H](CCCNC(=N)N)C(=O)O)C(C)C [ghrelin]
- plasma levels of IL-6 (interleukin-6): did not change
- mean difference of the peak GH levels (of week 1 and week 2) compared to baseline (growth hormone (GH); LD, 10 pmol kg^−1 min^−1 (about 2 μg kg^−1) i.v., SD 6, P=0.004 vs UD): 28 ng/mL
- mean difference of the peak GH levels (of week 1 and week 2) compared to baseline (growth hormone (GH); UD, 40 pmol kg^−1 min^−1 (about 8 μg kg^−1) i.v., SD 20, P=0.004 vs LD): 50 ng/mL
- peak increase of GH (growth hormone (GH); upper-dose ghrelin 8 μg kg^−1 i.v. over 60 min, cancer patients): 42 ng/mL
- abdominal pain, between infusion days (drug-related adverse events, grade 1 or 2) [1]: 2
- abdominal pain, during infusion on treatment days (drug-related adverse events, grade 1 or 2) [1]: 3
- abnormal liver tests or low potassium, possibly or probably related adverse events [1]: three
- asthenia, during infusion on treatment days (drug-related adverse events, grade 1 or 2) [1]: 1
- body temperature and oxygen saturation during and after the infusion [1]: remained unchanged
- diarrhea, between infusion days (drug-related adverse events, grade 1 or 2) [1]: 1
- dry mouth, during infusion on treatment days (drug-related adverse events, grade 1 or 2) [1]: 3
- increased CRP, possibly or probably related adverse events [1]: two
- nausea, between infusion days (drug-related adverse events, grade 1 or 2) [1]: 1
- shortness of breath (overeaten, aspiration), during infusion on treatment days (drug-related adverse events, grade 1 or 2) [1]: 1
- sweating, during infusion on treatment days (drug-related adverse events, grade 1 or 2) [1]: 2
- vomiting, between infusion days (drug-related adverse events, grade 1 or 2) [1]: 1
- worsening of pre-existing neuropathy, during infusion on treatment days (drug-related adverse events, grade 1 or 2) [1]: 1
- mean scores for tolerability of the study medication immediately after infusion and after lunch [2]: did not differ between ghrelin and placebo
- mean SDNN ([3]; week 1, placebo 78±35): 84 ± 40 ms
- mean SDNN ([3]; week 2, placebo 80±27): 75 ± 35 ms
- mean IGF-1 at day 17/18 ([4]; LD (n=7), ±994): 1359 pg per 100 μl
- mean IGF-1 at day 17/18 ([4]; UD (n=9), ±495): 1096 pg per 100 μl
- insulin-like growth factor 1 levels ([4]; both dose groups, over the study): did not change
- half-life [5]: approximately 15 min
- patients with progressive disease (PD) during the study period ([6]; both dose groups, crossover ghrelin/placebo): two
- tumour-growth dynamics ([6]; short intervals of tumour measurements): no major unexpected tumour-growth dynamics
- energy intake with i.v. ghrelin, higher than with placebo (cancer patients): 31%
- morning fasting total ghrelin levels 3 days after the prior ghrelin infusion compared to after placebo [7]: elevated

Source: publication PMC2361459, “Safety, tolerability and pharmacokinetics of intravenous ghrelin for cancer-related anorexia/cachexia: a randomised, placebo-controlled, double-blind, double-crossover study” (British Journal of Cancer, 2008)
